The record followed here is US20250276977A1, “TYK2 INHIBITORS AND USES THEREOF” (Alumis Inc., priority 2019, published 2025).

Like-named read-outs stand apart in the source and are kept apart here.

The subject of this assay is INFα induced pSTAT5. Briefly: INFα induced pSTAT5 in human PBMC. The assay is classed as cell-based. The note with it: INFα 5000 units/ml, read-out: p-STAT5 IC50. As for the experimental part: Fresh Human PBMCs were resuspended in RPMI 1640 medium with 10% FBS. Cells were seeded in a round bottom 96-well plate at the concentration of 200,000 cells/well. A 10-point dilution series of test compound (top dose 10 uM, 1:5 dilution) was added to the well using the liquid dispenser (Tecan D300e) and incubated for 1 hour at 37 C. Then human INFα recombinant protein (R&D Systems) was added to the well at the final concentration of 5000 units/ml and incubated for 15 minutes at 37 C. Cell lysates were prepared and analyzed by Phospho STAT3 (Tyr705) cellular kit (Cisbio) or Phospho STAT5 (Tyr693) Kit (Meso Scale Discovery) following manufacturer's protocol.
For calculation of the inhibition rate, the relative pSTAT signal of each well=pSTAT signal of each well−the average pSTAT signal of baseline.
The inhibition %=(the average pSTAT signal of INFα treatment wells—the relative of pSTAT signal in each compound containing well)/the average pSTAT signal of INFα treatment wells * 100%
The curve was plotted as the inhibition % (y-axis) vs. compounds concentration (x-axis) and was fitted with log(inhibitor) vs. normalized response—Variable slope by GraphPad Prism7.0.

In the case of `CNc1cc2nc3c(cnn13)C(=O)N[C@H](C)C(C)OCc1ccc(OC)c(c1)N2` (single isomer, unassigned) [Example 32], the IC50 is 0.7 nM.

Take `CNc1cc2nc3c(cnn13)C(=O)N[C@H](C)C(C)OCc1ccc(OC)c(c1)N2` (single isomer, unassigned) [Example 33]: the IC50 amounted to 42.8 nM.

Regarding `CNc1cc2nn3c(cnc13)C(=O)NCCCOc1cnc(OC)c(c1)N2` [Example 5], the IC50 (Homo sapiens, PBMC) came out at 151 nM. For `CNc1cc2nn3c(cnc13)C(=O)NCC(C)OCc1ccc(OC)c(c1)N2` (centres unmarked) [Example 8], the IC50 (Homo sapiens, PBMC) amounted to 13.9 nM.

As to `CNc1cc2nn3c(cnc13)C(=O)NCCOCc1cccc(OC)c1N2` [Example 9], the IC50 (Homo sapiens, PBMC) turned out to be 923 nM.

`CNc1cc2nn3c(cnc13)C(=O)N[C@@H](C)COCc1ccc(OC)c(c1)N2` [Example 11]: the IC50 (Homo sapiens, PBMC) turned out to be 436 nM. With `CNc1cc2nc3c(cnn13)C(=O)NC(C)COCc1ccc(OC)c(c1)N2` (centres unmarked) [Example 12], the IC50 (Homo sapiens, PBMC) was 2.2 nM.

For the molecule `CNc1cc2nn3c(cnc13)C(=O)NCCOC(C)c1ccc(OC)c(c1)N2` (centres unmarked) [Example 13], under “Homo sapiens, PBMC”, the IC50 was determined as 460 nM. With `CNc1cc2nn3c(cnc13)C(=O)N[C@H](C)COCc1cnc(OC)c(c1)N2` [Example 14], the IC50 (Homo sapiens, PBMC) came to 3 nM. With `CNc1cc2nn3c(cnc13)C(=O)NC(C)COCc1cc(c(OC)cc1F)N2` (centres unmarked) [Example 16], the IC50 (Homo sapiens, PBMC) was 3.6 nM. Take `CNc1cc2nn3c(cnc13)C(=O)N[C@H](C)COCc1cc(c(OC)cc1F)N2` [Example 17, (E)-3^4-fluoro-3^6-methoxy-7-methyl-1^8-(methylamino)-5-oxa-2,8-diaza-1(6,3)-imidazo[1,2-b]pyridazina-3(1,3)-benzenacyclononaphan-9-one]: the IC50 (Homo sapiens, PBMC) turned out to be 1 nM. Still for that read-out and setting: with `CNc1cc2nn3c(cnc13)C(=O)N[C@H](C)COCc1cc(F)c(OC)c(c1)N2` [Example 18, (7R,E)-3^5-fluoro-3^6-methoxy-7-methyl-1^8-(methylamino)-5-oxa-2,8-diaza-1(6,3)-imidazo[1,2-b]pyridazina-3(1, 3)-benzenacyclononaphan-9-one] the figure was 1.3 nM; with `CNc1cc2nn3c(cnc13)C(=O)NC1(CC1)COCc1ccc(OC)c(c1)N2` [Example 20, (E)-6′-methoxy-8′-(methylamino)spiro[cyclopropane-1,7′-5-oxa-2,8-diaza-1(6,3)-imidazo[1,2-b]pyridazina-3(1,3)-benzenacyclononaphan]-9′-one], 15.3 nM. For the molecule `CNc1cc2nn3c(cnc13)C(=O)NC(C)CCn1ncc3cc(OC)c(cc31)N2` (centres unmarked) [Example 21, (E)-3^5-methoxy-6-methyl-1^8-(methylamino)-31H-2,7-diaza-1(6,3)-imidazo [1,2-b]pyridazina-3(6,1)-indazolacyclooctaphan-8-one], the IC50 (Homo sapiens, PBMC) amounted to 102 nM. Same read-out and setting: with `CNc1cc2nn3c(cnc13)C(=O)N[C@H]1C[C@H](C1)OCc1ccc(OC)c(c1)N2` [Example 22] the figure was 10.7 nM; with `CNc1cc2nc3c(cnn13)C(=O)N[C@H](C)COCc1ccc(OC)c(c1)N2` [Example 25], 2.1 nM.

Turning to `CNc1cc2nc3c(cnn13)C(=O)N[C@H](C)COCc1cnc(OC)c(c1)N2` [Example 26], the IC50 was more than 200 nM. On to `CNc1cc2nc3c(cnn13)C(=O)N[C@H](C)COCc1cc(c(OC)cn1)N2` [Example 27], for which the IC50 (Homo sapiens, PBMC) was 7.2 nM.

Consider `CNc1cc2nc3c(cnn13)C(=O)N[C@H](C)COCc1cc(c(=O)n(-c3ccccn3)c1)N2` [Example 28], for which, under “Homo sapiens, PBMC”, the IC50 is 8.3 nM. For the molecule `CNc1cc2nc3c(cnn13)C(=O)N[C@H](C)COCc1cc(c3nn(C)cc3c1)N2` [Example 29], the IC50 (Homo sapiens, PBMC) was determined as 3.1 nM. For the molecule `CNc1cc2nc3c(cnn13)C(=O)N[C@@H](C)C(C)OCc1ccc(OC)c(c1)N2` (some centres unmarked) [Example 30], for the setting “Homo sapiens, PBMC”, the concentration for half-maximal inhibition (IC50) was more than 200 nM. Consider `CNc1cc2nc3c(cnn13)C(=O)N[C@@H](C)C(C)OCc1ccc(OC)c(c1)N2` (some centres unmarked) [Example 31], for which the IC50 was more than 200 nM. Turning to `CNc1cc2nc3c(cnn13)C(=O)N[C@H](C)COCc1cc(c3oc(C)nc3c1)N2` [Example 34], the IC50 (Homo sapiens, PBMC) came out at 2.5 nM.

The term IC50 denotes the concentration at which inhibition is half-maximal.
